For seven compounds, IC50 results are on record in BindingDB's records for patent US10399948 (Vanderbilt University, 2019).

As a reminder, the IC50 is the point on the concentration scale where inhibition reaches its midpoint.

Metabotropic glutamate receptor 5, sequence (P31424 whole entry): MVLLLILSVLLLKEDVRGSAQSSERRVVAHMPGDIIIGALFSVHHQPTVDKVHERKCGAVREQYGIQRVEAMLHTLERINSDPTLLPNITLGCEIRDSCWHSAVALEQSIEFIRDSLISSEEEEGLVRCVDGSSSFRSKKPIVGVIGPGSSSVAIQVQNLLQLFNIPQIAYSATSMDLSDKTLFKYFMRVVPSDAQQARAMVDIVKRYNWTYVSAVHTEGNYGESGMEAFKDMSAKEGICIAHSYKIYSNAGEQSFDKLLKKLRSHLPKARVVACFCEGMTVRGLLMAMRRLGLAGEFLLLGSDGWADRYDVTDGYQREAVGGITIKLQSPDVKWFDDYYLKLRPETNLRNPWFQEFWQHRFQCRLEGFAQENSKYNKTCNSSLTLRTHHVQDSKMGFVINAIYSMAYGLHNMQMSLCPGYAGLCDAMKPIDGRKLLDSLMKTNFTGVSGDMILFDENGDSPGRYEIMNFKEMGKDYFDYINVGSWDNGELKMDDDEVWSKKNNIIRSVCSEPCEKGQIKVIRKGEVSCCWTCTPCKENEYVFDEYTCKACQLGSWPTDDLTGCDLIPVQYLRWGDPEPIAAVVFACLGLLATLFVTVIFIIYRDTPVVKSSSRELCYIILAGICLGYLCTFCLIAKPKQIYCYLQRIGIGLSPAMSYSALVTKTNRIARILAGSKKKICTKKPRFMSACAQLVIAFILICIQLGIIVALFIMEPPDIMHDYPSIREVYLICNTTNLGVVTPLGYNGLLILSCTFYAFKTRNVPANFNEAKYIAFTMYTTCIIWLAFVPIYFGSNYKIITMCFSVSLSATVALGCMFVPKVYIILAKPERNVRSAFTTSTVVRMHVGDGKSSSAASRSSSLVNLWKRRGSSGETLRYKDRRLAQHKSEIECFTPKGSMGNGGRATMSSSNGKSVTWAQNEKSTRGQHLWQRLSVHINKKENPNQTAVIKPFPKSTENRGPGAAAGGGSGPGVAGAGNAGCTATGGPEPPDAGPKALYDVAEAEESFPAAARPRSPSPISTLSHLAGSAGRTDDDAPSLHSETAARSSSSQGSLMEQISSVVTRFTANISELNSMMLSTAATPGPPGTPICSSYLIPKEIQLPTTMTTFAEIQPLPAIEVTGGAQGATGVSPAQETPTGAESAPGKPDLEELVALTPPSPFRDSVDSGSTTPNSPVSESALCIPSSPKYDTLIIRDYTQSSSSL

The assay has as its target Metabotropic glutamate receptor 5 (Rattus norvegicus, UniProt P31424). The assay can be described thus: mGlu5 Ca2+ Flux Assay. On the procedure:
HEK 293A cells stably expressing rat mGlu5 were plated in black-walled, clear-bottomed, poly-D-lysine coated 384-well plates in 20 μL of assay medium (DMEM containing 10% dialyzed FBS, 20 mM HEPES, 100 units/mL penicillin/streptomycin plus 250 ng/mL Fungizone, and 1 mM sodium pyruvate) at a density of 20K cells/well. The cells were grown overnight at 37° C. in the presence of 5% CO2. The next day, medium was removed and the cells incubated with 20 μL of […] Fluo-4, AM prepared as a 2.3 mM stock in DMSO and mixed in a 1:1 ratio with 10% (w/v) pluronic acid F-127 and diluted in assay buffer (Hank's balanced salt solution, 20 mM HEPES, and 2.5 mM probenecid) for 45 minutes at 37° C. Dye was removed, 20 μL of assay buffer was added, and the plate was incubated for 5 minutes at room temperature.Ca2+ flux was measured using the Functional Drug Screening System (FDSS7000, Hamamatsu, Japan). After establishment of a fluorescence baseline for about 3 seconds, the compounds of the present invention were added to the cells, and the response in cells was measured. 2.3 minutes later an EC20 concentration of the mGlu5 receptor agonist glutamate was added to the cells, and the response of the cells was measured for 1.9 minutes; an EC80 concentration of agonist was added and readings taken for an additional 1.7 minutes. All test compounds were dissolved and diluted to a concentration of 10 mM in 100% DMSO. Compounds were then serially diluted 1:3 in DMSO into 10 point concentration response curves, transferred to daughter plates, and further diluted into assay buffer to a 2× stock. Calcium fluorescence measures were recorded as fold over basal fluorescence; raw data was then normalized to the maximal response to glutamate. Potentiation of the agonist response of the mGlu5 receptor in the present invention was observed as an increase in response to submaximal concentrations of glutamate in the presence of compound compared to the response to glutamate in the absence of compound. Antagonism of the agonist response of the mGlu5 receptor in the present invention was observed as a decrease in response to nearly maximal concentrations of glutamate in the presence of compound compared to the response to glutamate in the absence of compound.The raw data file containing all time points was used as the data source in the analysis template. This was saved by the FDSS as a tab-delimited text file. Data were normalized using a static ratio function (F/F0) for each measurement of the total 360 values per well divided by each well's initial value. Data were then reduced to peak amplitudes (Max−Initial Min) using a time range that starts approximately 3 seconds prior to the glutamate EC20/EC80 addition and continues for approximately 90-120 seconds. This is sufficient time to capture the peak amplitude of the cellular calcium response. Individual amplitudes were expressed as % EMax by multiplying each amplitude by 100 and then dividing the product by the mean of the amplitudes derived from the glutamate ECMax-treated wells. EC50 values for test compounds were generated by fitting the normalized values versus the log of the test compound concentration (in mol/L) using a 4 parameter logistic equation where none of the parameters were fixed. Each of the three values collected at each concentration of test compound were weighted evenly
(In general: A change in cytosolic calcium serves as a functional read-out for many receptors and channels.)
On to `O=c1cc(OCCOc2ncccc2Cl)ccn1-c1ccc(F)cc1` [US10399948, Compound 54], for which the IC50 was found to be 7.82 µM.

`O=c1cc(OCCOc2cc(Cl)ccn2)ccn1-c1ccc(F)cc1` [US10399948, Compound 49]: the IC50 was found to be 8.8 µM.

Regarding `N#Cc1cccc(-n2ccc(OCCOc3ccccc3)cc2=O)c1` [US10399948, Compound 22], the IC50 came out at 6.02 µM.

As for `O=c1nc(OCCOc2ccccc2)ccn1-c1cccc(F)c1` [US10399948, Compound 14], the IC50 came to 3.54 µM.

In the case of `O=c1nc(OCCOc2ccccc2)ccn1-c1ccc(F)c(F)c1` [US10399948, Compound 15], the half-maximal inhibitory concentration (IC50) is 0.427 µM.

Take `O=c1nc(OCCOc2ccccc2)ccn1-c1ccc(F)cc1` [US10399948, Compound 17]: the IC50 turned out to be 1.19 µM.

As for `N#Cc1cc(F)cc(-n2ccc(OCCOc3ccccc3)cc2=O)c1` [US10399948, Compound 23], the half-inhibitory concentration (IC50) worked out at 1.31 µM.
